# What was measured:
# dust mites [1] = experiment: Curative test: ZnS powder deposited on fitted carpet holding an existing acarid population, Example 14; type: in vivo, dermatophagoides pteronyssinus
# Protocol: (§1) The object of this study is to evaluate the effectiveness of a powder intended to be applied to floor coverings in a curative and/or preventive treatment for combating populations of dust mites.
# (§2) This characterization is carried out in the same laboratory which carried out the test of Example 12. The source of the acarids is identical.
# (§3) The test comprises two parts: • a curative test by deposition of the product on an existing population of acarids, • a preventive test with deposition of acarids on surfaces of fitted carpets treated beforehand with the product.
# (§4) Monitoring is carried out over a period of at least two cycles, i.e. 6 weeks, and in comparison with a population not subjected to the product.
# (§5) The experimental method is derived from the experimental context of the AFNOR standard NF G 39-011.
# (§6) The experimental unit is composed of a chamber with a diameter of 8 cm which is escapeproof with regard to the acarids but which allows ventilation and in which are found: • a piece of short-pile polyamide fitted carpet as floor • 5 g of nutrient medium (dust+skin scales) • the corresponding dose of the test powder.
# • approximately 50 active acarids are placed on the fitted carpets • the test product is mixed with the food and sprinkled with a salt cellar over the fitted carpet containing the acarids • 4 repetitions are carried out on the same day as experimental factor, including for the control batches composed of the same device but without the product • the product is applied at a rate of 160 mg/m^2 • 2 counts of the populations of acarids are carried out after incubating for 4 and 6 weeks under optimum development conditions.
# (§7) • the product is mixed with the food and sprinkled with a salt cellar over pieces of acarid-free fitted carpets • one month later, approximately 50 active acarids are placed on the treated fitted carpets • 4 repetitions are carried out as experimental factor, including for the control batches composed of the same device but without the product (same control as for the curative test) • the product is applied at the rate of 10, 40, 80 and 160 mg/m^2 • counting of the population of acarids is carried out after incubating for 6 weeks under optimum development conditions. The monitorings consist in counting the number of living acarids after the time period of 4 or 6 weeks of incubation. The method of counting the acarids and the calculation of the coefficient of regulation of the population of acarids (CP) are identical to Example 12.
# (§8) The population counts on controlled and treated are all carried out at the same number of weeks.
# dust mites [2] = experiment: Preventive test: acarids deposited on fitted carpet treated beforehand with ZnS powder, Example 14; type: in vivo, dermatophagoides pteronyssinus
# Protocol: as §1, §2, §3, §4, §5, §6, §7, §8
# [3] = tested on: dust mites (dermatophagoides pteronyssinus); experiment: Regulation of a dust mite population by powders (derived from AFNOR NF G 39-011), Example 12; type: in vivo; conditions: for Number of living acarids after 6 weeks, Mean: 5 g test powder + 5 g nutrient medium (food 1/NF G 39-011), 50 acarids placed, 4 repetitions; for CP (coefficient of regulation of the population of acarids), Mean: 6 weeks, versus sample without additive, 5 g test powder + 5 g nutrient medium, 0 = ineffective, 100 = eradication
# Protocol: This characterization is carried out by a laboratory registered by the French Ministry of Agriculture, Fisheries and Food. The object is to evaluate the effectiveness of PA powders, to which ZnS may or may not have been added, on the regulation of the change in a population of dust mites (dermatophagoides pteronyssinus). Monitoring is carried out over two development cycles of the acarids, i.e. 6 weeks.
# The acarids used originate from a laboratory strain raised on a substrate composed of a 50/50 (w/w) mixture of wheatgerm and of brewers yeast as specks graded by sieving (fragments of less than 1 mm). The temperature is between 23 and 25° C. and the relative humidity is maintained at 75% by the presence of a saturated ammonium sulphate solution. The screen is kept in darkness.
# The screen is supplied by the Laboratoire des Insectes et Acariens des Denrees [Laboratory of the Insects and Acarids of Foodstuff] of the Institut National de Recherches Agronomiques (INRA) [National Institute of Agronomic Research] at Bordeaux, according to the AFNOR standard NF G 39-011.
# The method is derived directly from the AFNOR standard NF G 39-011, with the following variations: • the experimental unit is composed of a chamber with a diameter of 8 cm which is escapeproof with regard to acarids but which allows ventilation and in which are found: • 5 g of nutrient medium (food 1/NF G 39-011 appendix) • 5 g of test powder, carpeting the bottom of the chamber • the study is carried out by placing 50 acarids in these devices • 4 repetitions are carried out on the same day per experimental factor, including for the control batches composed of the same device but without the addition of the powder. The result is expressed in the form of a mean and standard deviation with regard to these 4 samples.
# The monitoring consists in counting the number of living acarids after the time period of 6 weeks. As direct counting is rendered impossible by the structure of the substrate, extraction by heat according to the recommendations of the AFNOR standard NF G 39-011 is used.
# The criterion of effectiveness of an additive is then defined as the coefficient of regulation of the population of acarids (CP), i.e.:
# The population counts are all carried out at 6 weeks.
compound,measurement,setting,value
"[S-2].[Zn+2] [ZnS 1, ZnS]","Number of living acarids after 4 weeks, Mean","dust mites [1]; 160 mg/m^2, 4 weeks incubation",148
same,"CP 4 weeks, Mean","dust mites [1]; 160 mg/m^2, 4 weeks, versus untreated carpet",42
same,"Number of living acarids after 6 weeks, Mean","dust mites [1]; 160 mg/m^2, 6 weeks incubation",284
same,"CP 6 weeks, Mean","dust mites [1]; 160 mg/m^2, 6 weeks, versus untreated carpet",69
same,"CP 4 weeks, Mean","dust mites [2]; 10 mg/m^2, 4 weeks",6
same,"CP 6 weeks, Mean","dust mites [2]; 10 mg/m^2, 6 weeks",6
same,"Number of living acarids after 6 weeks, Mean","dust mites [2]; 10 mg/m^2, 6 weeks",849
same,"Number of living acarids after 4 weeks, Mean","dust mites [2]; 10 mg/m^2, acarids placed one month after treatment, 4 weeks",242
same,"CP 4 weeks, Mean","dust mites [2]; 40 mg/m^2, 4 weeks",40
same,"Number of living acarids after 4 weeks, Mean","dust mites [2]; 40 mg/m^2, 4 weeks",154
same,"CP 6 weeks, Mean","dust mites [2]; 40 mg/m^2, 6 weeks",60
same,"Number of living acarids after 6 weeks, Mean","dust mites [2]; 40 mg/m^2, 6 weeks",361
same,"CP 4 weeks, Mean","dust mites [2]; 80 mg/m^2, 4 weeks",45
same,"Number of living acarids after 4 weeks, Mean","dust mites [2]; 80 mg/m^2, 4 weeks",142
same,"CP 6 weeks, Mean","dust mites [2]; 80 mg/m^2, 6 weeks",65
same,"Number of living acarids after 6 weeks, Mean","dust mites [2]; 80 mg/m^2, 6 weeks",315
same,"CP 4 weeks, Mean","dust mites [2]; 160 mg/m^2, 4 weeks",52
same,"Number of living acarids after 4 weeks, Mean","dust mites [2]; 160 mg/m^2, 4 weeks",123
same,"CP 6 weeks, Mean","dust mites [2]; 160 mg/m^2, 6 weeks",68
same,"Number of living acarids after 6 weeks, Mean","dust mites [2]; 160 mg/m^2, 6 weeks",290
same,"Number of living acarids after 6 weeks, Mean",[3],318
same,"CP (coefficient of regulation of the population of acarids), Mean",[3],63
"[S-2].[Zn+2] [ZnS 2, ZnS]","Number of living acarids after 6 weeks, Mean",[3],305
same,"CP (coefficient of regulation of the population of acarids), Mean",[3],65

# Source: patent US20080311168A1, “PROCESS FOR COMBATING ACARIDS” (RHODIA CHIMIE, priority 2002, published 2008)
